In PubChem BioAssay AID1963979 (Molecular Pharmacology Branch, DTP, NCI, 2024):
pIC50: −log10 of the molar value. Where “and” joins values, the source holds several entries; their conditions need not be identical. Equal entries are not always repeated. Values belong to the compound of their own block, whether it stands above or below them.

System: 361931-004-R-J1-PDC multicell spheroid viability
Assay: Anticancer human tumor 361931-004-R-J1-PDC patient-derived colon adenocarcinoma cell line growth inhibition [PI3K]
Settings: for viability, T/C: stronger effect = lower value
How it was run: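 High-throughput combination screen: PI3K inhibitors crossed with targeted small molecules on complex spheroids of tumor cells, HUVEC and MSCs at 37 degrees C, 5% CO2. Top concentration was at or near clinical Cmax (otherwise 10 microM), with half-log decrements.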

[1] = curve of first compound, second compound 0.00316 µM
[2] = curve of first compound, second compound 0.01 µM
[3] = curve of first compound, second compound 0.0316 µM
[4] = curve of first compound, second compound 0.1 µM
[5] = curve of first compound, second compound 0.316 µM
[6] = curve of first compound, second compound 1 µM
[7] = second compound 0.00316 µM, first compound 0.0316 µM
[8] = second compound 0.00316 µM, first compound 0.1 µM
[9] = second compound 0.00316 µM, first compound 0.316 µM
[10] = second compound 0.00316 µM, first compound 1 µM
[11] = second compound 0.00316 µM, first compound 3.16 µM
[12] = second compound 0.00316 µM, first compound 10 µM
[13] = second compound 0.01 µM, first compound 0.0316 µM
[14] = second compound 0.01 µM, first compound 0.1 µM
[15] = second compound 0.01 µM, first compound 0.316 µM
[16] = second compound 0.01 µM, first compound 1 µM
[17] = second compound 0.01 µM, first compound 3.16 µM
[18] = second compound 0.01 µM, first compound 10 µM
[19] = second compound 0.0316 µM, first compound 0.0316 µM
[20] = second compound 0.0316 µM, first compound 0.1 µM
[21] = second compound 0.0316 µM, first compound 0.316 µM
[22] = second compound 0.0316 µM, first compound 1 µM
[23] = second compound 0.0316 µM, first compound 3.16 µM
[24] = second compound 0.0316 µM, first compound 10 µM
[25] = second compound 0.1 µM, first compound 0.0316 µM
[26] = second compound 0.1 µM, first compound 0.1 µM
[27] = second compound 0.1 µM, first compound 0.316 µM
[28] = second compound 0.1 µM, first compound 1 µM
[29] = second compound 0.1 µM, first compound 3.16 µM
[30] = second compound 0.1 µM, first compound 10 µM
[31] = second compound 0.316 µM, first compound 0.0316 µM
[32] = second compound 0.316 µM, first compound 0.1 µM
[33] = second compound 0.316 µM, first compound 0.316 µM
[34] = second compound 0.316 µM, first compound 1 µM
[35] = second compound 0.316 µM, first compound 3.16 µM
[36] = second compound 0.316 µM, first compound 10 µM
[37] = second compound 1 µM, first compound 0.0316 µM
[38] = second compound 1 µM, first compound 0.1 µM
[39] = second compound 1 µM, first compound 0.316 µM
[40] = second compound 1 µM, first compound 1 µM
[41] = second compound 1 µM, first compound 3.16 µM
[42] = second compound 1 µM, first compound 10 µM
[43] = curve of first compound, second compound 3.16 µM
[44] = curve of first compound, second compound 10 µM
[45] = second compound 3.16 µM, first compound 0.0316 µM
[46] = second compound 3.16 µM, first compound 0.1 µM
[47] = second compound 3.16 µM, first compound 0.316 µM
[48] = second compound 3.16 µM, first compound 1 µM
[49] = second compound 3.16 µM, first compound 3.16 µM
[50] = second compound 3.16 µM, first compound 10 µM
[51] = second compound 10 µM, first compound 0.0316 µM
[52] = second compound 10 µM, first compound 0.1 µM
[53] = second compound 10 µM, first compound 0.316 µM
[54] = second compound 10 µM, first compound 1 µM
[55] = second compound 10 µM, first compound 3.16 µM
[56] = second compound 10 µM, first compound 10 µM
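Note: spheroids exposed to agents for seven days before readout.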

- pIC50 [1]: < 5.00
- pIC50 [2]: < 5.00
- pIC50 [3]: < 5.00
- pIC50 [4]: < 5.00
- pIC50 [5]: < 5.00
- pIC50 [6]: 5.75
SMILES: C#Cc1c(F)ccc2cc(O)cc(-c3ncc4c(N5CC6CCC(C5)N6)nc(OCC56CCCN5CC(F)C6)nc4c3F)c12 (centres undefined) + CC(Nc1ccc2c(c1)OCCn1cc(N3C(=O)OCC3C(F)F)nc1-2)C(N)=O
- viability, T/C [7]: 99.7%
- viability, T/C [8]: 108%
- viability, T/C [9]: 93.5%
- viability, T/C [10]: 100%
- viability, T/C [11]: 89.6%
- viability, T/C [12]: 62.3%
- viability, T/C [13]: 101%
- viability, T/C [14]: 104%
- viability, T/C [15]: 81%
- viability, T/C [16]: 92.1%
- viability, T/C [17]: 75.3%
- viability, T/C [18]: 71.3%
- viability, T/C [19]: 101%
- viability, T/C [20]: 100%
- viability, T/C [21]: 106%
- viability, T/C [22]: 81.3%
- viability, T/C [23]: 84.3%
- viability, T/C [24]: 55.9%
- viability, T/C [25]: 93.8%
- viability, T/C [26]: 94.2%
- viability, T/C [27]: 76%
- viability, T/C [28]: 75%
- viability, T/C [29]: 68.5%
- viability, T/C [30]: 53.4%
- viability, T/C [31]: 86.6%
- viability, T/C [32]: 86%
- viability, T/C [33]: 68.2%
- viability, T/C [34]: 55.2%
- viability, T/C [35]: 57.1%
- viability, T/C [36]: 50%
- viability, T/C [37]: 78.7%
- viability, T/C [38]: 71.2%
- viability, T/C [39]: 64.6%
- viability, T/C [40]: 53.4%
- viability, T/C [41]: 46.2%
- viability, T/C [42]: 35.1%

- IC50 (curve of compound): 5.63 µM [middle of 4 runs]
SMILES: CC1(C)CCC(Nc2ncc(C(F)(F)F)c(-c3c[nH]c4c(P(C)(C)=O)c(C#N)ccc34)n2)CN1 (centres undefined)
- viability, T/C (compound 0.1 µM): 94.6% [middle of 4 runs]
- viability, T/C (compound 10 µM): 12.9% [middle of 4 runs]

Continued, compound first:

SMILES: CNC(=O)c1ccc(N2C(=S)N(c3ccc(C#N)c(C(F)(F)F)c3)C(=O)C2(C)C)cc1F
- viability, T/C (compound 0.0316 µM): 101% [middle of 4 runs]
- viability, T/C (compound 0.1 µM): 101% [middle of 4 runs]
- viability, T/C (compound 0.316 µM): 104% [middle of 4 runs]
- viability, T/C (compound 1 µM): 110% and 103% (2×) and 102%
- viability, T/C (compound 3.16 µM): 98.6% [middle of 4 runs]
- viability, T/C (compound 10 µM): 92.4% [middle of 4 runs]
- pIC50 (curve of compound): < 5.00

SMILES: Cn1ncc(Cl)c1-c1cc(C(=O)NC(CN)Cc2cccc(F)c2)sc1Cl (centres undefined) + CC(Nc1ncnc2nc[nH]c12)c1cc2cccc(Cl)c2c(=O)n1-c1ccccc1
- pIC50 [3]: 5.53
- pIC50 [4]: 5.48
- pIC50 [5]: 5.66
- pIC50 [6]: 5.59
- pIC50 [43]: 5.66
- pIC50 [44]: 5.60
- viability, T/C [19]: 95.2%
- viability, T/C [20]: 98.3%
- viability, T/C [21]: 88.7%
- viability, T/C [22]: 70.6%
- viability, T/C [23]: 49.7%
- viability, T/C [24]: 32.1%
- viability, T/C [25]: 103%
- viability, T/C [26]: 104%
- viability, T/C [27]: 92.7%
- viability, T/C [28]: 77.5%
- viability, T/C [29]: 50.8%
- viability, T/C [30]: 30.9%
- viability, T/C [31]: 106%
- viability, T/C [32]: 108%
- viability, T/C [33]: 90.8%
- viability, T/C [34]: 60.4%
- viability, T/C [35]: 48.5%
- viability, T/C [36]: 27.1%
- viability, T/C [37]: 111%
- viability, T/C [38]: 101%
- viability, T/C [39]: 90.1%
- viability, T/C [40]: 61.8%
- viability, T/C [41]: 49.9%
- viability, T/C [42]: 31%
- viability, T/C [45]: 105%
- viability, T/C [46]: 105%
- viability, T/C [47]: 89.4%
- viability, T/C [48]: 65.4%
- viability, T/C [49]: 44.4%
- viability, T/C [50]: 24.5%
- viability, T/C [51]: 97.2%
- viability, T/C [52]: 95.8%
- viability, T/C [53]: 89.5%
- viability, T/C [54]: 75.4%
- viability, T/C [55]: 43%
- viability, T/C [56]: 25%

SMILES: Cn1ncc(Cl)c1-c1cc(C(=O)NC(CN)Cc2cccc(F)c2)sc1Cl (centres undefined)
- viability, T/C (compound 0.0316 µM): 94.2% [middle of 4 runs]
- viability, T/C (compound 0.1 µM): 97.2% [middle of 4 runs]
- viability, T/C (compound 3.16 µM): 46.3% [middle of 4 runs]
- viability, T/C (compound 10 µM): 29.7% [middle of 4 runs]

SMILES: CC1(C)CCC(CN2CCN(c3ccc(C(=O)NS(=O)(=O)c4ccc(NCC5CCOCC5)c([N+](=O)[O-])c4)c(Oc4cnc5[nH]ccc5c4)c3)CC2)=C(c2ccc(Cl)cc2)C1 + COc1c(OCCCN2CCOCC2)ccc2c3n(c(=NC(=O)c4cnc(N)nc4)nc12)CCN3
- pIC50 [1]: 5.25
- pIC50 [2]: 5.25
- pIC50 [3]: 5.31
- pIC50 [4]: 5.46
- pIC50 [5]: 6.26
- pIC50 [6]: > 7.50
- viability, T/C [7]: 92.3%
- viability, T/C [8]: 98.1%
- viability, T/C [9]: 108%
- viability, T/C [10]: 104%
- viability, T/C [11]: 95.4%
- viability, T/C [12]: 4.89%
- viability, T/C [13]: 106%
- viability, T/C [14]: 98.7%
- viability, T/C [15]: 104%
- viability, T/C [16]: 101%
- viability, T/C [17]: 94.6%
- viability, T/C [18]: 3.83%
- viability, T/C [19]: 96%
- viability, T/C [20]: 94.9%
- viability, T/C [21]: 96.2%
- viability, T/C [22]: 90.4%
- viability, T/C [23]: 78.6%
- viability, T/C [24]: 3.08%
- viability, T/C [25]: 82.5%
- viability, T/C [26]: 76.6%
- viability, T/C [27]: 76.8%
- viability, T/C [28]: 81%
- viability, T/C [29]: 54.5%
- viability, T/C [30]: 1.89%
- viability, T/C [31]: 53%
- viability, T/C [32]: 51.6%
- viability, T/C [33]: 51.4%
- viability, T/C [34]: 48.6%
- viability, T/C [35]: 36.4%
- viability, T/C [36]: 2.15%
- viability, T/C [37]: 25.9%
- viability, T/C [38]: 25.6%
- viability, T/C [39]: 21.4%
- viability, T/C [40]: 25.6%
- viability, T/C [41]: 19.8%
- viability, T/C [42]: 2.71%

SMILES: CC(Nc1ccc2c(c1)OCCn1cc(N3C(=O)OCC3C(F)F)nc1-2)C(N)=O (centres undefined)
- viability, T/C (compound 0.00316 µM): 98.9% [middle of 8 runs]
- viability, T/C (compound 0.01 µM): 97.8% [middle of 8 runs]
- viability, T/C (compound 0.0316 µM): 98.1% [middle of 8 runs]
- viability, T/C (compound 0.1 µM): 94.3% [middle of 8 runs]
- viability, T/C (compound 0.316 µM): 92.9% [middle of 8 runs]
- viability, T/C (compound 1 µM): 88.1% [middle of 8 runs]
- pIC50 (compound alone, run of 05/08/2023): < 6.00

SMILES: CC(Cn1ccc(-c2ccc(C#N)c(Cl)c2)n1)NC(=O)c1cc(C(C)O)[nH]n1 (centres undefined) + CC(Nc1ncnc2nc[nH]c12)c1cc2cccc(Cl)c2c(=O)n1-c1ccccc1
- pIC50 [3]: < 5.00
- pIC50 [4]: < 5.00
- pIC50 [5]: < 5.00
- pIC50 [6]: < 5.00
- pIC50 [43]: < 5.00
- pIC50 [44]: < 5.00
- viability, T/C [19]: 102%
- viability, T/C [20]: 92.6%
- viability, T/C [21]: 96.7%
- viability, T/C [22]: 90%
- viability, T/C [23]: 104%
- viability, T/C [24]: 102%
- viability, T/C [25]: 105%
- viability, T/C [26]: 96.9%
- viability, T/C [27]: 103%
- viability, T/C [28]: 101%
- viability, T/C [29]: 106%
- viability, T/C [30]: 99.4%
- viability, T/C [31]: 102%
- viability, T/C [32]: 103%
- viability, T/C [33]: 104%
- viability, T/C [34]: 103%
- viability, T/C [35]: 108%
- viability, T/C [36]: 97.4%
- viability, T/C [37]: 99.5%
- viability, T/C [38]: 102%
- viability, T/C [39]: 96.4%
- viability, T/C [40]: 98%
- viability, T/C [41]: 100%
- viability, T/C [42]: 106%
- viability, T/C [45]: 98.8%
- viability, T/C [46]: 104%
- viability, T/C [47]: 100%
- viability, T/C [48]: 104%
- viability, T/C [49]: 103%
- viability, T/C [50]: 104%
- viability, T/C [51]: 105%
- viability, T/C [52]: 95.9%
- viability, T/C [53]: 100%
- viability, T/C [54]: 99%
- viability, T/C [55]: 109%
- viability, T/C [56]: 98.7%
